In patent US7977107B2, “Oral detection test for cannabinoid use” (LabOne, Inc., priority 2004, dated 2011):

Tests used:
[1] = Δ^9-THC metabolism in oral fluid (incubation at about 37° C., THCA assayed versus time); format: in vitro ADME; conditions: 10 ng/ml Δ^9-THC in certified negative oral fluid, several hours, triplicate
Protocol: In this example, Δ^9-THC metabolism in oral fluid was investigated. Δ^9-THC was incubated at about 37° C. in oral fluid for several hours. THCA levels were assayed versus time to ensure metabolism of Δ^9-THC to THCA or THCA-glucuronide in the oral cavity or mucosa was not a possible source of the measured result. This was performed in triplicate at 10 ng/ml using certified negative oral fluid samples. Δ^9-THC standard material of known purity was used.
Δ^9-THC metabolism to THCA was not detected during this experiment. Further, it has been reported that Δ^9-THC metabolism occurs in the liver. See Watanabe, et al., A cytochrome P450 isozyme having aldehyde oxygenase activity plays a major role in metabolizing cannabinoids by mouse hepatic microsomes, Biochem Pharmacol., Vol. 46 No. 3, at pp. 405-11 (August 1993).

[2] = Detection of THCA in oral fluid samples of test subjects by GC/MS/MS; format: in vivo, human; conditions: Group C: 26 samples screened and confirmed positive for Δ^9-THC
Text: Oral fluid samples from 223 test subjects were collected with a commercially available INTERCEPT® oral fluid collection device manufactured by OraSure Technologies, Inc. (Bethlehem, Pa.) in accordance with the manufacturer's instructions. This device comprises an absorbent collection pad (e.g., cotton or a sponge) affixed to the end of a handle. The collection pad of the collection device is placed in the mouth of the subject until the collection pad is substantially saturated with oral fluid, which typically takes about four minutes.
The oral fluid samples were obtained from two drug testing facilities. The samples were divided into three groups: negative screens (A), positive screens (B), and positive confirms (C). Group A consisted of 144 oral fluid samples that had been tested by ELISA for the parent compound Δ^9-THC and were negative for this test (cutoff 4.0 ng/ml Δ^9-THC, cross reactive with THCA at 0.33 ng/ml, no confirmation with GC/MS/MS performed). […] Finally, Group C consisted of 26 oral fluid samples that screened positive by ELISA for the parent compound Δ^9-THC and were also confirmed positive for Δ^9-THC by GC/MS/MS. Each of these samples from Group A, B, and C was then tested for the presence or absence of THCA by GC/MS/MS in accordance with the present invention. […]
Quantitation was performed using the internal standard area of the 495-peak ratio with the 492-peak. […]

Compound	Δ^9-THC metabolism to THCA [1]	THCA level in oral fluid (highest) [2] [pg/mL]
CCCCCc1cc(O)c2c(c1)OC(C)(C)[C@@H]1CCC(C)=C[C@@H]21 [Δ^9-THC, Δ^9-tetrahydrocannabinol]	not detected	
11-nor-Δ^9-THC carboxylic acid [THCA]		≤ 142
